Assay results taken from US12398118B2, “Rho-associated protein kinase inhibitor, pharmaceutical composition comprising same, and use thereof” (BEIJING TIDE PHARMACEUTICAL CO., LTD., priority 2018, dated 2025).
Each block holds one compound with its values, some of them ahead of it.

Assays:
ROCK1 = ROCK1 (Homo sapiens (Human), UniProt Q13464); experiment: ROCK1 kinase IC50, biological test method similar to ROCK2 assay; assay type: biochemical
Experimental: (§1) The kinase IC50 was determined by a commercialized CISBIO kinase detection kit, HTRF KinEASE-STK S2 kit (62ST2PEC). ROCK2 (01-119) employed in the reaction was purchased from Carna Biosciences.
(§2) Before the assay, the following working solutions as needed were formulated with corresponding reagents according to the instruction of the kinase detection kit: 1×kinase buffer, 5×STK-S2 substrate working solution (1.5 μM) and 5×ATP working solution (1.5 μM), 5×ROCK2 kinase working solution, 4×Streptavidin-XL665 working solution, and 4×STK-Ab-Cryptate 2 detection solution. Then the assay was performed according to the following procedure.
(§3) A solution of a compound at a concentration of 10000 nM was prepared with the 1×kinase buffer containing 2.5% DMSO. Gradient dilution of the solution of the compound was performed with the kinase buffer containing DMSO, so as to obtain solutions of a test compound at 9 different concentrations. In addition to wells of test compounds, a positive well (containing all the reagents except the compound) and a negative well (containing all the reagents except the test compound and kinase) were set. Except for the control wells (positive and negative wells), a solution of a test compound (4 μL) was added to each of the reaction wells, and a solution of 2.5% DMSO was added to the control wells. Then the substrate (2 μM, i.e., 2 μL 5×STK-S2 substrate working solution) was added to each of the reaction wells. The 5×ROCK2 kinase working solution (2 μL, containing 1.4 ng ROCK2 kinase) was added to each of the reaction wells except for the negative well, the volume of which was made up with the 1×kinase buffer (2 μL). The 5×ATP working solution (2 μL) was added to each of the reaction wells, and the mixtures were incubated at room temperature for 2 hours. After the kinase reaction was complete, the 4×Streptavidin-XL665 working solution was added to each of the reaction wells, the solutions were mixed, followed by immediate addition of the 4×STK-Ab-Cryptate 2 detection solution (5 μL), and the mixtures were incubated at room temperature for 1 hour. The fluorescence signal was read on ENVISION (Perkinelmer) (excitation wavelength: 320 inn, and emission wavelength: 665 nm and 615 nm). The inhibitory rate in each well was calculated based on the fluorescence intensity value: ER (Emission Ratio)_(fluorescence intensity at 665 nm/fluorescence intensity at 615 nm); inhibitory rate=(ERpositive−ERtest compound)/(ERpositive−ERnegative)*100%. Curves were plotted and fitted to obtain the median inhibitory concentration (IC50) of each teat compound with the PRISM 5.0 software. According to a biological test method similar to the above, the IC50 values of the compounds on ROCK1 were also tested.

ROCK2 = ROCK2 (Homo sapiens, UniProt O75116); experiment: ROCK2 kinase IC50, HTRF KinEASE-STK S2 kit; assay type: biochemical; settings: 2 hours at room temperature
Experimental: as §1, §2, §3

Chain of ROCK2 (O75116 whole entry, looked up): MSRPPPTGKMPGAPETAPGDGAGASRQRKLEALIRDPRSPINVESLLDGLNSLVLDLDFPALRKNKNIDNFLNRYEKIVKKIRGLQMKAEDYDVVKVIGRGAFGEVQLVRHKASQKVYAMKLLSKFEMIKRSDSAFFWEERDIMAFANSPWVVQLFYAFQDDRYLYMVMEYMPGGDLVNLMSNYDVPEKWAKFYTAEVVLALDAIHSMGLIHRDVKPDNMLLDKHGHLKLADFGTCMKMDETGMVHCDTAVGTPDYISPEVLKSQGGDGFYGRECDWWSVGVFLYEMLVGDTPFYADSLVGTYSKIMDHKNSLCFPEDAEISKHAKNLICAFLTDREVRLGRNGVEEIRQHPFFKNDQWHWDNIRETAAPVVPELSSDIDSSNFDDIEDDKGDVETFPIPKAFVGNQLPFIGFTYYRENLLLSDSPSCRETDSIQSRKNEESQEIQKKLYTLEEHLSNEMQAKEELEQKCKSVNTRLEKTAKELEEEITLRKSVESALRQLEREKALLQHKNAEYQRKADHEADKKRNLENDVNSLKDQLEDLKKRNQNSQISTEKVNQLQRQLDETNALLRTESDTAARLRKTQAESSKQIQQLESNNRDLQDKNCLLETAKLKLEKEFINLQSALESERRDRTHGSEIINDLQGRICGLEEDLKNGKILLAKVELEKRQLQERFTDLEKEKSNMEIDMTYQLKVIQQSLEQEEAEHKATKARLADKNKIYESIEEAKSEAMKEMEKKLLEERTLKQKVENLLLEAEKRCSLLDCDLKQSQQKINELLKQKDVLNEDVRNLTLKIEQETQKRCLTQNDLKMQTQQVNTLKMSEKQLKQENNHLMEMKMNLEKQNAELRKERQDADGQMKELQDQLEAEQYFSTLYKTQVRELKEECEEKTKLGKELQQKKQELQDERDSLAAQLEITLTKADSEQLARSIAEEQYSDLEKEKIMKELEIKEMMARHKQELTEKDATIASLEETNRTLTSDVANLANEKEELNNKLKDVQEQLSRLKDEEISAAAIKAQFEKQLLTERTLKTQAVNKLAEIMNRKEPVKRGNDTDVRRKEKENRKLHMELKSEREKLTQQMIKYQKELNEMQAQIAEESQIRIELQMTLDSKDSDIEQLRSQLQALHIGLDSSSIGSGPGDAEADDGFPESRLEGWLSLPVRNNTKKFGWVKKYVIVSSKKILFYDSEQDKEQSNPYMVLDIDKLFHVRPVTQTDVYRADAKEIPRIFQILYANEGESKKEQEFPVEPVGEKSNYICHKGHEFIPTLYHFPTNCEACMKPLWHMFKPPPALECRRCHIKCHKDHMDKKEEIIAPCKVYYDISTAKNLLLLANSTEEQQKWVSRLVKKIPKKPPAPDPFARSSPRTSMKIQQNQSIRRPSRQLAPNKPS
Chain of ROCK1 (Q13464 whole entry, species assumed): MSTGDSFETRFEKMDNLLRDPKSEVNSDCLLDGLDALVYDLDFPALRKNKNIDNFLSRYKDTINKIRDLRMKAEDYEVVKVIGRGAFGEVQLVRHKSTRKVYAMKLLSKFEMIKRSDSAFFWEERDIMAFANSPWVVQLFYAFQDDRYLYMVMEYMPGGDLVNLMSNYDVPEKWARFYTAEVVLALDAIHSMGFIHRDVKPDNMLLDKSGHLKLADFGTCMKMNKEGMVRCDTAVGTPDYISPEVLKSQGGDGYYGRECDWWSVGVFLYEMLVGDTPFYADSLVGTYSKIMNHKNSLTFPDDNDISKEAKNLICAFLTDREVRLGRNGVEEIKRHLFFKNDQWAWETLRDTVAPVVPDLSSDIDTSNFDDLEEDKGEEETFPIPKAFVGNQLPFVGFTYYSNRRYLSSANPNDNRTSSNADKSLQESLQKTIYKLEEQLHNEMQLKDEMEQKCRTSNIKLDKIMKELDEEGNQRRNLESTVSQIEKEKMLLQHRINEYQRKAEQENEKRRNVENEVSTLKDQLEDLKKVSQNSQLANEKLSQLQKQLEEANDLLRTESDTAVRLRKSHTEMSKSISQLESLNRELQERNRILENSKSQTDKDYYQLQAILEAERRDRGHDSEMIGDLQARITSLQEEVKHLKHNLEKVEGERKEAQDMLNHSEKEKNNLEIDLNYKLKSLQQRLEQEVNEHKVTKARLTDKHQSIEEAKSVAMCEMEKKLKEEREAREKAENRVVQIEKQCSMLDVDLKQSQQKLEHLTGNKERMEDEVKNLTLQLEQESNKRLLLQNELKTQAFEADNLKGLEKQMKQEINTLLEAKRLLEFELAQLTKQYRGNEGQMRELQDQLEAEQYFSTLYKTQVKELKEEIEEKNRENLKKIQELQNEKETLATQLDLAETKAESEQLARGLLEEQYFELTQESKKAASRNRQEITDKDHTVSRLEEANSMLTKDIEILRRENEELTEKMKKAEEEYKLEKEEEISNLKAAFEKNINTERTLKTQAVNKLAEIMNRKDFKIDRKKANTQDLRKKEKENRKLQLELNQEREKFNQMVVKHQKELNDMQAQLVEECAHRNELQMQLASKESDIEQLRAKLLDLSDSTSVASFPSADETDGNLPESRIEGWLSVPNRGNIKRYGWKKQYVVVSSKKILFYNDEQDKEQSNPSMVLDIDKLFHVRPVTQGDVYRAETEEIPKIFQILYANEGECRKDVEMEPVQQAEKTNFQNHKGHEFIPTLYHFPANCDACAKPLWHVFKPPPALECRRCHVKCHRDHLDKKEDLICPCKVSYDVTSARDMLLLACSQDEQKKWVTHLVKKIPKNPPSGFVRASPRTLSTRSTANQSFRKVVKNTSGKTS

Compound: O=C1NCCc2cc(Nc3nc(-c4ccc5c(c4)CN(C(=O)N4CC(F)(F)C4)C5)ncc3F)ccc21 [C81, 6-((2-(2-(3,3-difluoro-azetidine-1-carbonyl)isoindolin-5-yl)-5-fluoro-pyrimidin-4-yl)amino)-3,4-dihydro-isoquinolin-1(2H)-one]
IC50 (ROCK1): > 10000 nM
IC50 (ROCK2): 129 nM

Compound: O=C(C1CC(F)(F)C1)N1Cc2ccc(-c3ncc(F)c(Nc4ccc5c(=O)[nH]cnc5c4)n3)cc2C1 [C6, 7-((2-(2-(3,3-difluoroo-cyclobutane-1-carbonyl)isoindolin-5-yl)-5-fluoro-pyrimidin-4-yl)amino) quinazolin-4(3H)-one]
IC50 (ROCK1): > 10000 nM
IC50 (ROCK2): 76 nM

Compound: CC(C)(C)OC(=O)N1CCc2sc(-c3ncc(F)c(Nc4ccc5c(c4)CCNC5=O)n3)cc2C1 [C42, tert-butyl 2-(5-fluoro-4-((1-oxo-1,2,3,4-tetrahydroisoquinolin-6-yl)amino)pyrimidin-2-yl)-6,7-dihydrothieno[3,2-c]pyridine-5(4H)-carboxylate]
IC50 (ROCK1): > 10000 nM
IC50 (ROCK2): 31 nM

Compound: O=C1NCCc2cc(Nc3nc(-c4ccc5c(c4)CN(C(=O)CCC(F)(F)F)C5)ncc3F)ccc21 [C64, 6-((5-fluoro-2-(2-(4,4,4-trifluoro-butanoyl)isoindolin-5-yl)pyrimidin-4-yl)amino)-3,4-dihydro-isoquinolin-1(2H)-one]
IC50 (ROCK1): > 10000 nM
IC50 (ROCK2): 109 nM

Compound: O=C(CCC(F)(F)F)N1Cc2ccc(-c3ncc(F)c(Nc4ccc5c(=O)[nH]ccc5c4)n3)cc2C1 [C63, 6-((5-fluoro-2-(2-(4,4,4-trifluoro-butanoyl)isoindolin-5-yl)pyrimidin-4-yl)amino) isoquinolin-1(2H)-one]
IC50 (ROCK1): > 10000 nM
IC50 (ROCK2): 24 nM

Compound: O=C(c1cc2ccc(-c3ncc(F)c(Nc4ccc5c(=O)[nH]ccc5c4)n3)cc2[nH]1)N1CC(F)(F)C1 [C9, 6-((2-(2-(3,3-difluoroazetidine-1-carbonyl)-1H-indol-6-yl)-5-fluoropyrimidin-4-yl)amino)isoquinolin-1(2H)-one]
IC50 (ROCK1): > 10000 nM
IC50 (ROCK2): 4 nM

Compound: CC(CC(=O)N1Cc2ccc(-c3nccc(Nc4ccc5c(=O)[nH]ccc5c4)n3)cc2C1)C(F)(F)F (stereo not drawn) [C48, 6-((2-(2-(4,4,4-trifluoro-3-methyl-butanoyl)isoindolin-5-yl)pyrimidin-4-yl)amino) isoquinolin-1(2H)-one]
IC50 (ROCK1): > 10000 nM
IC50 (ROCK2): 13 nM

Compound: O=C1NCCc2cc(Nc3nc(-c4cc5c(s4)CCN(C(=O)OC(C(F)(F)F)C(F)(F)F)C5)ncc3F)ccc21 [C61, 1,1,1,3,3,3-hexafluoropropan-2-yl 2-(5-fluoro-4-((1-oxo-1,2,3,4-tetrahydroisoquinolin-6-yl)amino)pyrimidin-2-yl)-6,7-dihydrothieno[3,2-c]pyridine-5(4H)-carboxylate]
IC50 (ROCK1): > 10000 nM
IC50 (ROCK2): 170 nM

Compound: O=C(N1CCc2cc(-c3nccc(Nc4ccc5c(=O)[nH]ccc5c4)n3)ccc2C1)N1CC(F)(F)C1 [C44, 6-((2-(2-(3. 3-difluoro-azetidine-1-carbonyl)-1,2,3,4-tetrahydro-isoquinolin-6-yl)pyrimidin-4-yl)amino) isoquinolin-1(2H)-one]
IC50 (ROCK1): > 10000 nM
IC50 (ROCK2): 57 nM

Compound: O=C(CCC(F)(F)F)N1CCc2sc(-c3ncc(F)c(Nc4ccc5c(=O)[nH]ccc5c4)n3)cc2C1 [C68, 6-((5-fluoro-2-(5-(4,4,4-trifluorobutanoyl)-4,5,6,7-tetrahydrothieno[3,2-c]pyridin-2-yl)pyrimidin-4-yl)amino)isoquinolin-1(2H)-one]
IC50 (ROCK1): > 10000 nM
IC50 (ROCK2): 9 nM

IC50 (ROCK1): > 10000 nM
IC50 (ROCK2): 17 nM
Compound: O=C(C1CC(F)(F)C1)N1Cc2ccc(-c3ncc(F)c(Nc4ccc5c(=O)[nH]ncc5c4)n3)cc2C1 [C12, 6-((2-(2-(3,3-difluoroo-cyclobutane-1-carbonyl)isoindolin-5-yl)-5-fluoro-pyrimidin-4-yl)amino) phthalazin-1(2H)-one]

Compound: CC(C)(C)CC(=O)N1Cc2ccc(-c3ncc(F)c(Nc4ccc5c(=O)[nH]ccc5c4)n3)cc2C1 [C51, 6-((2-(2-(3,3-dimethyl-butanoyl)isoindolin-5-yl)-5-fluoro-pyrimidin-4-yl)amino) isoquinolin-1(2H)-one]
IC50 (ROCK1): > 10000 nM
IC50 (ROCK2): 53 nM

Compound: CC(CC(=O)N1CCc2sc(-c3ncc(F)c(Nc4ccc5c(c4)CCNC5=O)n3)cc2C1)C(F)(F)F (stereo not drawn) [C55, 6-((5-fluoro-2-(5-(4,4,4-trifluoro-3-methylbutanoyl)-4,5,6,7-tetrahydrothieno[3,2-c]pyridin-2-yl)pyrimidin-4-yl)amino)-3,4-dihydroisoquinolin-1(2H)-one]
IC50 (ROCK1): > 10000 nM
IC50 (ROCK2): 51 nM

Compound: O=C(c1ccc2c(c1)CN(c1nccc(Nc3ccc4c(=O)[nH]ccc4c3)n1)C2)N1CC(F)(F)C1 [C1, 6-((2-(5-(3,3-difluoroazetidine-1-carbonyl)isoindolin-2-yl)pyrimidin-4-yl)amino)isoquinolin-1(2H)-one]
IC50 (ROCK1): > 10000 nM
IC50 (ROCK2): 129 nM

Compound: O=C(N1Cc2ccc(-c3ncc(F)c(Nc4ccc5c(=O)[nH]ccc5c4)n3)cc2C1)N1CC(F)(F)C1 [C79, 6-((2-(2-(3,3-difluoro-azetidine-1-carbonyl)isoindolin-5-yl)-5-fluoro-pyrimidin-4-yl)amino) isoquinolin-1(2H)-one]
IC50 (ROCK1): > 10000 nM
IC50 (ROCK2): 46 nM

Compound: O=C1NCCc2cc(Nc3nc(-c4ccc5c(c4)CN(C(=O)N4CCC(F)(F)CC4)C5)ncc3F)ccc21 [C41, 6-((2-(2-(4,4-difluoro-piperidine-1-carbonyl)isoindolin-5-yl)-5-fluoro-pyrimidin-4-yl)amino)-3,4-dihydro-isoquinolin-1(2H)-one]
IC50 (ROCK1): > 10000 nM
IC50 (ROCK2): 151 nM

Compound: CC(OC(=O)N1Cc2ccc(-c3ncc(F)c(Nc4ccc5c(c4)CCNC5=O)n3)cc2C1)C(F)(F)F (stereo not drawn) [C66, 1,1,1-trifluoro-propan-2-yl 5-(5-fluoro-4-((1-oxo-1,2,3,4-tetrahydro-isoquinolin-6-yl)amino)pyrimidin-2-yl) isoindolin-2-carboxylate]
IC50 (ROCK1): > 10000 nM
IC50 (ROCK2): 82 nM

IC50 (ROCK1): > 10000 nM
IC50 (ROCK2): 130 nM
Compound: COCn1c(C(=O)N2CC(F)(F)C2)cc2ccc(-c3ncnc(Nc4ccc5c(=O)[nH]ccc5c4)n3)cc21 [C22, 6-((4(2-(3,3-difluoro-azetidine-1-carbonyl)-1-(methoxy-methyl)-1H-indol-6-yl)-1,3,5-triazin-2-yl)amino) isoquinolin-1(2H)-one]

Compound: CC(C)(C)OC(=O)N1Cc2ccc(-c3ncc(F)c(Nc4ccc5c(=O)[nH]ccc5c4)n3)cc2C1 [C11, tert-butyl 5-(5-fluoro-4-((1-oxo-1,2-dihydro-isoquinolin-6-yl)amino)pyrimiclin-2-yl) isoindoline-2-carboxylate]
IC50 (ROCK1): > 10000 nM
IC50 (ROCK2): 34 nM

IC50 (ROCK1): > 10000 nM
IC50 (ROCK2): 264 nM
Compound: Cn1c(C(=O)N2CC(F)(F)C2)cc2ccc(-c3nccc(Nc4ccc5c(N)nccc5c4)n3)cc21 [C38, (6-(4-((1-aminoisoquinolin-6-yl)amino)pyrimidin-2-yl)-1-methyl-1H-indol-2-yl)(3,3-difluoroazetidin-1-yl)methanone]

IC50 (ROCK1): > 10000 nM
IC50 (ROCK2): 33 nM
Compound: CC(OC(=O)N1CCc2sc(-c3nccc(Nc4ccc5c(c4)CCNC5=O)n3)cc2C1)C(F)(F)F (stereo not drawn) [C59, 1,1,1-trifluoropropan-2-yl 2-(4-((1-oxo-1,2,3,4-tetrahydroisoquinolin-6-yl)amino)pyrimidin-2-yl)-6,7-dihydrothieno[3,2-c]pyridine-5(4H)-carboxylate]

Compound: C[C@@H](OC(=O)N1CCc2sc(-c3ncc(F)c(Nc4ccc5c(c4)CCNC5=O)n3)cc2C1)C(F)(F)F [C65, (R)-1,1,1-trifluoropropan-2-yl 2-(5-fluoro-4-((1-oxo-1,2,3,4-tetrahydroisoquinolin-6-yl)amino)pyrimidin-2-yl)-6,7-dihydrothieno[3,2-c]pyridine-5(4H)-carboxylate]
IC50 (ROCK1): > 10000 nM
IC50 (ROCK2): 80 nM

Compound: CC(OC(=O)N1CCc2cc(-c3ncc(F)c(Nc4ccc5c(=O)[nH]ccc5c4)n3)ccc21)C(F)(F)F (stereo not drawn) [C73, 1,1,1-trifluoro-propan-2-yl 5-(5-fluoro-4-((1-oxo-1,2-dihydro-isoquinolin-6-yl)amino)pyrimidin-2-yl) indoline-1-carboxylate]
IC50 (ROCK1): > 10000 nM
IC50 (ROCK2): 78 nM

Compound: O=C(OC1CCOC1)N1Cc2ccc(-c3ncc(F)c(Nc4ccc5c(=O)[nH]ccc5c4)n3)cc2C1 (stereo not drawn) [C19, tetra-hydrofuran-3-yl 5-(5-fluoro-4-((1-oxo-1,2-dihydro-isoquinolin-6-yl)amino)pyrimidin-2-yl) isoindoline-2-carboxylate]
IC50 (ROCK1): > 10000 nM
IC50 (ROCK2): 25 nM
